According to the supplement of paper PMC10307832:

What was measured:
Experiment in all cases: relative viability (nuclei count vs DMSO), 5 days (fraction); higher = more cells survive
[1] = compound: C[C@]12O[C@H](C[C@]1(O)CO)n1c3ccccc3c3c4c(c5c6ccccc6n2c5c31)CNC4=O [Lestaurtinib] + O=C(CCCCCCC(=O)Nc1ccccc1)NO [Vorinostat] (partner 1 µM)
How it was run: (§1)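 Medians of duplicate plates are given as relative viability. That measure is the nuclei count in treated wells divided by the count in vehicle wells. Counts were taken on 4× images of lung cancer cell lines in 1536-well plates, 5 days after pin-tool dosing the day after seeding with one drug alone or a fixed anchor-drug dose plus five library-drug doses (not always all listed) in √10 steps.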

[2] = compound: C1/C(=C\C2=CC=CS2)/C(=O)/C(=C/C3=CC=CS3)/C1 + COc1cccc2cc(-c3nc([C@H]4CC[C@H](C(=O)O)CC4)n4ncnc(N)c34)[nH]c12 [OSI-027] (partner 0.5 µM)
How it was run: as §1

TPCA-1 + Tozasertib = compound: C1=CC(=CC=C1C2=CC(=C(S2)NC(=O)N)C(=O)N)F [TPCA-1] + Cc1cc(Nc2cc(N3CCN(C)CC3)nc(Sc3ccc(NC(=O)C4CC4)cc3)n2)n[nH]1 [Tozasertib] (partner 0.1 µM)
How it was run: as §1

[3] = compound: C[C@]12O[C@H](C[C@]1(O)CO)n1c3ccccc3c3c4c(c5c6ccccc6n2c5c31)CNC4=O [Lestaurtinib] + C[C@@H](Oc1cc(-c2cnn(C3CCNCC3)c2)cnc1N)c1c(Cl)ccc(F)c1Cl [Crizotinib] (partner 1 µM)
How it was run: as §1

Cell Line	relative viability ([1]; first compound 0.005 µM)	relative viability ([1]; first compound 0.01581 µM)	relative viability ([1]; first compound 0.05 µM)	relative viability ([1]; first compound 0.1581 µM)	relative viability ([1]; first compound 0.5 µM)	relative viability ([2]; first compound 0.2 µM)	relative viability ([2]; first compound 0.6325 µM)	relative viability ([2]; first compound 2 µM)	relative viability ([2]; first compound 6.325 µM)	relative viability ([2]; first compound 20 µM)	relative viability (TPCA-1 + Tozasertib; first compound 0.04 µM)	relative viability (TPCA-1 + Tozasertib; first compound 0.1265 µM)	relative viability (TPCA-1 + Tozasertib; first compound 0.4 µM)	relative viability (TPCA-1 + Tozasertib; first compound 1.265 µM)	relative viability (TPCA-1 + Tozasertib; first compound 4 µM)	relative viability ([3]; first compound 0.005 µM)	relative viability ([3]; first compound 0.01581 µM)	relative viability ([3]; first compound 0.05 µM)	relative viability ([3]; first compound 0.1581 µM)	relative viability ([3]; first compound 0.5 µM)
EMC-BAC-2	0.32	0.703	0.337	0.317	0.222	0.411	0.383	0.432	0.337	0.389	0.251	0.306	0.302	0.498	0.25	0.722	0.76	0.599	0.569	0.264
NCI-H1355	0.733	0.675	0.457	0.412	0.31	0.481	0.42	0.412	0.335	0.424	0.595	0.574	0.597	0.461	0.254	1.29	1.09	1.01	0.86	0.549
NCI-H23	0.602	0.645	0.549	0.308	0.126	0.689	0.683	0.717	0.572	0.579	0.303	0.348	0.332	0.308	0.248	0.466	0.495	0.401	0.546	0.233
NCI-H1651	0.555	0.617	0.539	0.58	0.23	0.684	0.803	0.815	0.676	0.789	0.678	0.646	0.794	0.652	0.521	0.897	0.997	0.837	0.858	0.551
NCI-H1975	0.755	0.735	0.617	0.578	0.382	0.944	0.689	–	0.661	0.739	0.796	0.697	0.737	0.407	0.312	0.943	0.988	0.707	0.867	0.586
COR-L23	0.618	0.433	0.294	0.212	0.115	0.804	0.816	0.732	0.709	0.749	0.155	0.168	0.18	0.134	0.129	0.707	0.763	–	0.489	0.161
HCC-44	1.06	1.13	1.1	1.23	0.446	0.482	0.528	0.649	0.475	0.479	1.07	0.937	0.889	–	0.294	0.878	0.822	0.685	0.929	0.607
LOU-NH91	0.824	0.962	0.646	0.422	0.303	0.733	0.722	0.769	0.648	0.714	0.769	0.57	0.639	0.602	0.423	0.755	0.718	0.627	0.547	0.469
NCI-H441	0.641	0.837	0.62	0.573	0.389	0.795	0.661	0.548	0.602	0.596	0.946	0.632	0.506	0.379	0.28	0.912	0.654	0.395	0.505	0.308
NCI-H647	0.629	0.695	0.391	0.284	0.109	0.624	0.716	0.67	0.391	0.684	0.262	0.198	0.348	0.129	0.164	0.93	1.12	0.624	0.225	0.141
NCI-H1915	0.512	0.489	0.427	0.325	0.162	0.636	0.632	0.657	0.249	0.681	0.435	0.428	0.435	0.362	0.229	0.914	1.1	0.816	0.848	0.357
NCI-H1734	0.872	0.824	0.525	0.258	0.212	0.584	0.668	0.741	0.519	0.593	0.272	0.29	0.266	0.264	0.264	0.741	0.649	0.538	0.424	0.205
NCI-H1993	0.823	0.808	0.754	0.455	0.485	0.627	0.54	0.585	0.447	0.523	0.573	0.562	0.655	0.606	0.559	0.936	0.971	0.819	0.635	0.548
LK-2	0.237	0.353	0.198	0.193	0.154	0.223	0.226	0.266	0.216	0.2	0.167	0.176	0.187	0.172	0.16	0.241	0.264	0.267	0.188	0.188
HCC-78	0.442	0.407	0.386	0.311	0.243	0.372	0.404	0.431	0.37	0.326	0.406	0.413	0.427	0.477	0.205	0.318	0.396	0.318	0.287	0.267
NCI-H2405	1.03	1.29	0.88	0.938	0.253	0.619	0.633	0.705	0.497	0.624	0.753	0.75	0.765	0.754	0.555	0.852	0.87	0.767	0.698	0.578
